In ChEMBL document CHEMBL1128947, “Asiaticoside mimetics as wound healing agent” (1996) one finds Tensile strength and Relative value data, which are given here for 15 compounds.

The species named for test [1] is Rattus norvegicus. The experiment in a line: Effect on the wound healing in rats at 7th postoperative day by measuring tensile strength of skin strips from the wound segments. Type of test: functional.
The species named for test [2] is Rattus norvegicus. The experiment in a line: Tested for its effect on the wound healing in rats at 7th postoperative day by measuring tensile strength of skin strips from the wound segments; value relative to control(100). Type of test: functional.

Structures are written as SMILES.

The compound `COCCOCOC(=O)[C@]12CC[C@@H](C)[C@H](C)C1C1=CCC3[C@@]4(C)C[C@@H](O)[C@H](O)[C@@](C)(CO)C4CC[C@@]3(C)[C@]1(C)CC2` (stereo not given in full) registered a Tensile strength in test [1] of 398 g cm**-2. The compound also displayed a Relative value in test [2] of 139.

With `CCCCOC(C)OC(=O)[C@]12CC[C@@H](C)[C@H](C)C1C1=CCC3[C@@]4(C)C[C@@H](O)[C@H](O)[C@@](C)(CO)C4CC[C@@]3(C)[C@]1(C)CC2` (stereo not given in full), the Tensile strength in test [1] is 362 g cm**-2. The Relative value in test [2] is given as 126.

Regarding `C[C@@H]1CC[C@]2(C(=O)O)CC[C@]3(C)C(=CCC4[C@@]5(C)C[C@@H](O)[C@H](O)[C@@](C)(CO)C5CC[C@]43C)C2[C@H]1C` (stereo not given in full), the Tensile strength in test [1] stood at 418 g cm**-2. Besides, the Relative value in test [2] was 146.

`C[C@@H]1CC[C@]2(C(=O)OC3CCCCO3)CC[C@]3(C)C(=CCC4[C@@]5(C)C[C@@H](O)[C@H](O)[C@@](C)(CO)C5CC[C@]43C)C2[C@H]1C` (stereo not given in full): in test [1], the Tensile strength is 481 g cm**-2. This compound yielded a Relative value in test [2] of 168.

Turning to `COCOC(=O)[C@]12CC[C@@H](C)[C@H](C)C1C1=CCC3[C@@]4(C)C[C@@H](O)[C@H](O)[C@@](C)(CO)C4CC[C@@]3(C)[C@]1(C)CC2` (stereo not given in full), in test [1], the Tensile strength is reported as 404 g cm**-2. In test [2], this compound had a Relative value of 141.

With `CC(=O)OC[C@@]1(C)C2CC[C@]3(C)C(CC=C4C5[C@@H](C)[C@H](C)CC[C@]5(C(=O)OC5CCCCO5)CC[C@]43C)[C@@]2(C)C[C@@H](OC(C)=O)[C@@H]1OC(C)=O` (stereo not given in full), the Tensile strength in test [1] was found to be 393 g cm**-2. This compound also came in with a Relative value in test [2] of 173.

In test [1], `CCOCOC(=O)[C@]12CC[C@@H](C)[C@H](C)C1C1=CCC3[C@@]4(C)C[C@@H](O)[C@H](O)[C@@](C)(CO)C4CC[C@@]3(C)[C@]1(C)CC2` (stereo not given in full) registered a Tensile strength of 476 g cm**-2. The same compound displayed a Relative value in test [2] of 166.

Regarding `COCCOCOC(=O)[C@]12CC[C@@H](C)[C@H](C)C1C1=CCC3[C@@]4(C)C[C@@H](OC(C)=O)[C@H](OC(C)=O)[C@@](C)(COC(C)=O)C4CC[C@@]3(C)[C@]1(C)CC2` (stereo not given in full), in test [1], the Tensile strength is 320 g cm**-2. Moreover, the Relative value in test [2] is 141.

Compound `CCOCOC(=O)[C@]12CC[C@@H](C)[C@H](C)C1C1=CCC3[C@@]4(C)C[C@@H](OC(C)=O)[C@H](OC(C)=O)[C@@](C)(COC(C)=O)C4CC[C@@]3(C)[C@]1(C)CC2` (stereo not given in full) showed a Tensile strength in test [1] of 487 g cm**-2. For the same compound, the Relative value in test [2] came out at 215.

As to `CCOC(C)OC(=O)[C@]12CC[C@@H](C)[C@H](C)C1C1=CCC3[C@@]4(C)C[C@@H](O)[C@H](O)[C@@](C)(CO)C4CC[C@@]3(C)[C@]1(C)CC2` (stereo not given in full), in test [1], the Tensile strength was found to be 387 g cm**-2. In test [2], this compound gave a Relative value of 135.

`C[C@@H]1CC[C@]2(C(=O)OCOCc3ccccc3)CC[C@]3(C)C(=CCC4[C@@]5(C)C[C@@H](O)[C@H](O)[C@@](C)(CO)C5CC[C@]43C)C2[C@H]1C` (stereo not given in full) yielded a Tensile strength in test [1] of 327 g cm**-2. Besides, the Relative value in test [2] was 114.

In turn, `COCOC(=O)[C@]12CC[C@@H](C)[C@H](C)C1C1=CCC3[C@@]4(C)C[C@@H](OC(C)=O)[C@H](OC(C)=O)[C@@](C)(COC(C)=O)C4CC[C@@]3(C)[C@]1(C)CC2` (stereo not given in full) registered a Tensile strength in test [1] of 330 g cm**-2. This compound also came in with a Relative value in test [2] of 145.

Regarding `CC(=O)OC[C@@]1(C)C2CC[C@]3(C)C(CC=C4C5[C@@H](C)[C@H](C)CC[C@]5(C(=O)OC5CCCO5)CC[C@]43C)[C@@]2(C)C[C@@H](OC(C)=O)[C@@H]1OC(C)=O` (stereo not given in full), in test [1], the Tensile strength stood at 331 g cm**-2. Also, the Relative value in test [2] stood at 145.

For the compound `CCCCCCCCOCOC(=O)[C@]12CC[C@@H](C)[C@H](C)C1C1=CCC3[C@@]4(C)C[C@@H](OC(C)=O)[C@H](OC(C)=O)[C@@](C)(COC(C)=O)C4CC[C@@]3(C)[C@]1(C)CC2` (stereo not given in full), in test [1], the Tensile strength was 310 g cm**-2. This compound gave a Relative value in test [2] of 137.

Compound `CCCCCCCCOCOC(=O)[C@]12CC[C@@H](C)[C@H](C)C1C1=CCC3[C@@]4(C)C[C@@H](O)[C@H](O)[C@@](C)(CO)C4CC[C@@]3(C)[C@]1(C)CC2` (stereo not given in full) had a Tensile strength in test [1] of 468 g cm**-2. The Relative value in test [2] worked out at 163.
